Laboratory results taken from patent publication US7608718B2, “4,5-dihydro-1H-pyrazole derivatives having potent CB1-antagonistic activity” (Solvay Pharmaceuticals B.V., priority 2001, dated 2009).

Compound	melting point [°C]
O=S(=O)(N=C(NC1CC1)N1CC(c2ccccc2)C(c2ccc(Cl)cc2)=N1)N1CCCCC1 (stereo not drawn) [Example 56, 3-(4-Chlorophenyl)-N-cyclopropyl-4-phenyl-N′-((piperidin-1-yl)sulfonyl)-4,5-dihydro-1H-pyrazole-1-carboxamidine]	142 to 144
CCN(CC)S(=O)(=O)N=C(NC)N1CC(O)(c2ccccc2)C(c2ccc(Cl)cc2)=N1 (stereo not drawn) [Example 57, 3-(4-Chlorophenyl)-N′-((diethylamino)sulfonyl)-N-methyl-4-hydroxy-4-phenyl-4,5-dihydro-1H-pyrazole-1-carboxamidine]	180 to 182
CCN(CC)S(=O)(=O)N=C(NC)N1CC(c2ccccc2)C(c2ccc(Cl)s2)=N1 (stereo not drawn) [Example 58, 3-(5-Chlorothien-2-yl)-N′-((diethylamino)sulfonyl)-N-methyl-4-phenyl-4,5-dihydro-1H-pyrazole-1-carboxamidine]	122 to 123
CC(C)NC(=NS(=O)(=O)N(C)C)N1CC(c2ccccc2)C(c2ccc(Cl)cc2)=N1 (stereo not drawn) [Example 59, 3-(4-Chlorophenyl)-N′-((dimethylamino)sulfonyl)-N-isopropyl-4-phenyl-4,5-dihydro-1H-pyrazole-1-carboxamidine]	169 to 170
CN1CCC(NC(=NS(=O)(=O)N(C)C)N2CC(c3ccccc3)C(c3ccc(Cl)cc3)=N2)CC1 (stereo not drawn) [Example 60, 3-(4-Chlorophenyl)-N′-((dimethylamino)sulfonyl)-N-(1-methylpiperidin-4-yl)-4-phenyl-4,5-dihydro-1H-pyrazole-1-carboxamidine]	144 to 146
CCN(CC)S(=O)(=O)N=C(N(C)C)N1CC(O)(c2ccccc2)C(c2ccc(Cl)cc2)=N1 (stereo not drawn) [Example 63, 3-(4-Chlorophenyl)-N′-((diethylamino)sulfonyl)-N,N-dimethyl-4-hydroxy-4-phenyl-4,5-dihydro-1H-pyrazole-1-carboxamidine]	135 to 137
CCN(CC)S(=O)(=O)N=C(N(C)C)N1CC(c2ccccc2)C(c2ccc(F)cc2)=N1 (stereo not drawn) [Example 64, N′-((Diethylamino)sulfonyl)-N,N-dimethyl-3-(4-fluorophenyl)-4-phenyl-4,5-dihydro-1H-pyrazole-1-carboxamidine]	159 to 160
CCNC(=NS(=O)(=O)N(CC)CC)N1CC(O)(c2ccccc2)C(c2ccc(Cl)cc2)=N1 (stereo not drawn) [Example 68, 3-(4-Chlorophenyl)-N′-((diethylamino)sulfonyl)-N-ethyl-4-hydroxy-4-phenyl-4,5-dihydro-1H-pyrazole-1-carboxamidine]	162 to 165
CCN(CC)S(=O)(=O)N=C(NC)N1CC(c2ccncc2)C(c2ccc(Cl)cc2)=N1 (stereo not drawn) [Example 71, N′-((Diethylamino)sulfonyl)-3-(4-chlorophenyl)-N-methyl-4-(pyridin-4-yl)-4,5-dihydro-1H-pyrazole-1-carboxamidine]	109 to 111
CNC(=NS(=O)(=O)N(C)C)N1CC(c2cccnc2)C(c2ccc(Cl)cc2)=N1 (stereo not drawn) [Example 72, 3-(4-Chlorophenyl)-N′-((dimethylamino)sulfonyl)-N-methyl-4-(pyridin-3-yl)-4,5-dihydro-1H-pyrazole-1-carboxamidine]	157 to 159
CNC(=NS(=O)(=O)N(C)C)N1CC(c2ccncc2)C(c2ccc(Cl)cc2)=N1 (stereo not drawn) [Example 74, 3-(4-Chlorophenyl)-N′-((dimethylamino)sulfonyl)-N-methyl-4-(pyridin-4-yl)-4,5-dihydro-1H-pyrazole-1-carboxamidine]	178 to 182
CNC(=NS(=O)(=O)N1CCCCC1)N1CC(c2cccnc2)C(c2ccc(Cl)cc2)=N1 (stereo not drawn) [Example 78, 3-(4-Chlorophenyl)-N-methyl-N′-((piperidin-1-yl)sulfonyl)-4-(pyridin-3-yl)-4,5-dihydro-1H-pyrazole-1-carboxamidine]	174 to 177
